This is an account of results in patent US20120121591A1 (priority 2009, published 2012).

Positions of bridges follow the written chain, without caps; N, C: chain ends. Non-standard residues stand in square brackets, D forms with d. Residues, ends and D or L forms follow the SMILES beside them. Nva = CCC[C@H](N)C(=O)O

For one test, the target named is hKv1.3 (Homo sapiens, UniProt P22001). Nature of the test: cell-based. The format is cell-based.
In the next test the target is hKv1.1 (Homo sapiens, UniProt Q09470). Nature of the test: cell-based. The conditions noted are these: Kv1.1 (IWQ) IC50 (nM, Avg).
Test [1] deals with IFN-g secretion from T cells in human whole blood. The test is classed as cell-based.
In test [2] the test system is IL-2 secretion from T cells in human whole blood. The format is cell-based.

hKv1.3, sequence (P22001 whole entry): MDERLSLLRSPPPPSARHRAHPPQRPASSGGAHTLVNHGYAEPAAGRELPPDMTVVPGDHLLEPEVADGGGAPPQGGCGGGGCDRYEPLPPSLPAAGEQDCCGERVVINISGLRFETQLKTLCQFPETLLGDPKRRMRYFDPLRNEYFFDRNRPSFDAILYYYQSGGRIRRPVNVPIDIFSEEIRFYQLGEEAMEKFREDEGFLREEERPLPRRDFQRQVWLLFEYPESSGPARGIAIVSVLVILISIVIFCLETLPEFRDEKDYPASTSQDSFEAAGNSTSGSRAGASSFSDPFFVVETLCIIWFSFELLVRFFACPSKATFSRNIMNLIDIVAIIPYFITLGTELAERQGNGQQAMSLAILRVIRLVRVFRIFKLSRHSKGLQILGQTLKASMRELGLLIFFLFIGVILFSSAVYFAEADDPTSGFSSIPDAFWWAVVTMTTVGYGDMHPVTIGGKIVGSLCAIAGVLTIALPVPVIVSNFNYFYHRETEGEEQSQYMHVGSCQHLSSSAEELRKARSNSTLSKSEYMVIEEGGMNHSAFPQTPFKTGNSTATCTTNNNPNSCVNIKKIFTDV
hKv1.1, sequence (Q09470 whole entry): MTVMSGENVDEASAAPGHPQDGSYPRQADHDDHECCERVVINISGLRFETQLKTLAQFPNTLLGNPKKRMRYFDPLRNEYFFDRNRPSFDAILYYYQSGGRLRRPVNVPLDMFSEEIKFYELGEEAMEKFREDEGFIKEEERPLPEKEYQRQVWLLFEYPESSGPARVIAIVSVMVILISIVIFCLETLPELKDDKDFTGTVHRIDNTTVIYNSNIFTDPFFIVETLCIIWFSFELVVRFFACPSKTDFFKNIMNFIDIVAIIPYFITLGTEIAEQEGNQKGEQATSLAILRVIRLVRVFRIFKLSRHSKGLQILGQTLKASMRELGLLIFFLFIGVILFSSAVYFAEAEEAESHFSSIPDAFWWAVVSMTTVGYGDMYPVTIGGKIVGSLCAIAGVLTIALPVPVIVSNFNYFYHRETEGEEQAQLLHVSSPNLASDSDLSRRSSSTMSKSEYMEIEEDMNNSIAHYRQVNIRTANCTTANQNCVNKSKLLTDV

`CCC[C@@H]1NC(=O)[C@H](CO)NC(=O)[C@H]([C@@H](C)O)NC(=O)[C@H](CCCNC(=N)N)NC(=O)[C@@H]2CSSC[C@@H]3NC(=O)[C@H]([C@@H](C)O)NC(=O)[C@H](CCCCN)NC(=O)[C@H](CCCNC(=N)N)NC(=O)[C@H](CSSC[C@H](NC(=O)[C@H](CCC(=O)O)NC(=O)[C@H](CO)NC(=O)[C@H](C(C)C)NC(=O)[C@@H]4CCCN4C(=O)[C@H]([C@@H](C)CC)NC(=O)[C@H](CC(C)C)NC(=O)[C@H](CC(=O)O)NC(=O)[C@H](CCCCN)NC(=O)[C@@H](NC(=O)[C@@H](NC(=O)[C@@H](N)CCCNC(=N)N)[C@@H](C)O)CSSC[C@@H](C(N)=O)NC(=O)[C@H](CO)NC(=O)CNC3=O)C(=O)N[C@@H]([C@@H](C)O)C(=O)N[C@@H](CC(=O)O)C(=O)N[C@@H]([C@@H](C)CC)C(=O)N[C@@H](CCCCN)C(=O)N2)NC(=O)[C@H](CC(C)C)NC(=O)[C@H](CC(N)=O)NC(=O)[C@H](CC(C)C)NC(=O)[C@H](CCCNC(=N)N)NC(=O)[C@H](Cc2ccc(O)cc2)NC(=O)[C@H](CCCCN)NC1=O` [[Lys16, Nva21]HmK-amide] (H-RTCKDLIPVSECTDIKCRTS[Nva]KYRLNLCRKTCGSC-NH2; disulfide 3-35, 12-28, 17-32): the “Kv1.1/Kv1.3 Selectivity Ratio” value at hKv1.3 turned out to be 0.025. Moreover, the IC50 came out at 23 nM at hKv1.3 (Kv1.3 (IWQ) IC50 (nM, Avg)); 0.58 nM on hKv1.1; 9.83 nM in test [1] (read-out: WB (IFNg) IC50 (nM, Avg)); 6.39 nM in test [2] (read-out: WB (IL-2) IC50 (nM, Avg)). Besides, the “WB (IFNg) Potency Relative to ShK” value in test [1] is recorded as 188.96. Besides, in test [2], the “WB (IL-2) Potency Relative to ShK” value was 148.53.
